Assay results: patent publication US10351613B2, “Polypeptide for inhibition of tumor” (G-Bio Pharma Tech Co., Ltd., priority 2015, dated 2019)
Converted amounts (≈) assume the structure as drawn. Like-named read-outs stand apart in the source and are kept apart here. Residues, ends and D or L forms follow the SMILES beside them.

Legend:
[1] = system: Human liver cancer BEL7404 tumor model; assay type: in vivo; conditions: for Tumor inhibitor rate (%): BEL7404, day 21, polypeptides 15 mg/kg sc 2 times per day 21 days, endostatin/endostar 50 mg/kg sc, CTX 30 mg/kg ip 7 days; for toxic reaction: BEL7404 model, same regimens
Description: In vitro cultured tumor cells in exponential phase and in good state were formulated to a 100 μl cell suspension containing 5×10^6 tumor cells. The suspension was subcutaneously inoculated to nude mice. Well-grown solid tumors were obtained 15 days later and cut into uniform pieces of about 3 mm under sterile condition. Each nude mouse was inoculated by one piece through a trocar. Mice were re-grouped according the tumor size 10-14 days after inoculation and animals having too large and too small tumor were excluded from the test. The average tumor volume for each group was basically identical. Test drugs were administered to each group according to the experimental protocol. The major axis (a) and minor axis (b) of the tumor were measured twice a week. Animals were sacrificed at the end of the test. The tumor was taken out, weighed and photos were taken. Tumor volume (TV)=½×a×b^2; Relative tumor volume (RTV)=Vt/Vo, wherein Vo is the tumor volume measured before grouping (one day before administration of the test drug), and Vt is the tumor volume measured at each time. Tumor inhibition rate (%)=(1−T/C)×100%, wherein T is the average tumor volume of the treatment group and C is the average tumor volume of the negative control group.
The amino acid sequence of recombination endostatin (“endostatin”) was set forth in SEQ ID NO: 1, and the amino acid sequence of the marketed drug Endostar (“endostar”) was set forth in SEQ ID NO: 10. Human liver cancer BEL7404 tumor model was constructed according to the method described in Example 10. The test contained 6 groups, with 6 animals in each group, except for the negative control group which contained 9 animals. The molar dose of the polypeptides was basically equal to the molar dose of endostatin. The results are shown in FIGS. 11a and 11b and the following Table.

[2] = system: Human Umbilical Vein Endothelial Cell (HUVEC); assay type: cell-based
Description: 20 cm umbilical cord adjacent to fetus was taken, cleaned by washing, ligated at both ends, placed into 150 ml preservation solutions for umbilical cord, and stored in a 4° C. refrigerator for digestion for 6 hours. The umbilical cord was inspected to remove the damaged portion. The umbilical vein was thoroughly cleaned by washing and then 10 ml collagenase solution was injected. Then the umbilical vein was transferred to a 37° C. incubator for digestion for 15 minutes. The umbilical cord was removed and the digested solution was recovered. The digested solution was washed by PBS and centrifuged. After centrifugation, the cells were culture by re-suspension.
(§1) Inhibition of cell growth was detected by a MTT method, which is based on the principle that succinate dehydrogenase in the mitochondria of the live cells could reduce the exogenous MTT (3-(4,5-dimethyl-2-thiazolyl)-2,5-diphenyl-tetrazolium bromide) to a […] Formazan which is a blue-violet crystal, and precipitates in the cells, while the death cells could not reduce MTT. DMSO could dissolve Formazan in the cells. Absorbance value of the solution was determined at 490/570 nm by microplate reader, which could indirectly indicate the amount of the live cells. The amount of the crystal from MTT is proportional to the amount of the cells within a certain range of cell number. The supernate from the HUVEC or tumor cells in exponential phase was removed and the cells were washed by PBS once. 1 ml 0.25% trypsin (4° C.) was added for digestion at 37° C. for 2 min. Then the supernate was added for neutralization and the cells were dispersed to form a suspension and the suspension was centrifuged at 1000 rpm for 3 min. The supernate was removed and 5 ml culture mediums were added for resuspension. Cells were inoculated in a 48-well plate by 500 ul/well at the concentration of 3×10^4/ml and then incubated under 5% CO2, 37° C. for 24 hours. The supernate was removed and a culture medium containing polypeptide (Zn^2+ in the culture medium was present at the concentration of 17.39 μmol/L) was added for further incubation for 48 hours. Supernate in each well was carefully removed. The well was gently washed by PBS once in an amount of 450 μl/well. 450 μl MTT culture mediums were added into each well for further cultivation for 4 hours. The supernate was carefully discarded. DMSO was added in an amount of 450 μl/well and then the plate was placed in a shaking bed for oscillation for 10 min in dark. 150 μl supernates were transferred to a 96-well ELISA plate and absorbance value of each well was detected at 490 nm and 570 nm by the microplate reader.

tumor cell HepG2 = assay type: cell-based
Description: as §1

LS174T (Colon cancer) = assay type: cell-based
Description: as §1
(§2) P2 (SEQ ID NO:2) and P2T2S18 (SEQ ID NO:6) were tested for their in vitro inhibition on SMMC7221, SPC-A-1, A549, LS174T, BEL7402, CK-MES-1 and BxPC-3 at a polypeptide concentration of 1 mg/ml according to the method described in Example 3. Results are shown in FIG. 9 and the following Table. […] All IC50 concentrations for P2T2S18 are less than 1/10 IC50 concentration of P2.

SPC-A-1 (lung carcinoma) = assay type: cell-based
Description: as §1, §2

A549 (lung carcinoma) = assay: MTT in vitro inhibition of A549; assay type: cell-based
Description: as §1, §2

[3] = system: CK-MES-1 (lung squamous cell carcinoma); assay: MTT in vitro inhibition of CK-MES-1; assay type: cell-based
Description: as §1, §2

BEL7402 (Liver cancer) = assay: MTT in vitro inhibition of BEL7402; assay type: cell-based
Description: as §1, §2

SMMC7721 (Liver cancer) = assay: MTT in vitro inhibition of SMMC7721; assay type: cell-based
Description: as §1, §2

[4] = system: BxPC-3 (pancreatic cancer); assay: MTT in vitro inhibition of BxPC-3; assay type: cell-based
Description: as §1, §2

[5] = system: lung cancer cell line SPC-A-1; assay: In vitro death of SPC-A-1 tumor cell observed under optical microscope; assay type: cell-based; conditions: SPC-A-1, 2.5 mg/ml
Description: Polypeptides were tested for their effect in inducing cell death of lung cancer cell line SPC-A-1 at a polypeptide concentration of 2.5 mg/ml according to the method described in Example 3. Cells were observed under an optical microscope over 24 hours and photos were taken. P2 exerts its function 4 hours after being added into the culture medium. […] On the contrary, they extremely swelled. 4 hours later cells further swelled and began to disintegrate at 8 hours. […] The manner of P2T2S18 caused cell death is very surprising. Currently, it is unable to determine what manner this kind of cell death belongs to. No report is found in papers as well. However, this mode of cell death is obviously different from that caused by P2. Together with the results in Example 7, it can conclude that P2T2S18 not only has a biological activity obviously higher than P2, but also has a manner causing cell death obviously different from that of P2.

For O=P1(N(CCCl)CCCl)NCCCO1 (stereo not shown) [CTX, Cyclophosphamide, reference compound], the “Tumor inhibitor rate (%)” value [1] was 68.0% and the toxic reaction [1] was “typical chemotherapeutic toxic side effect”.

With CC[C@H](C)[C@H](NC(=O)CNC(=O)[C@H](CCCNC(=N)N)NC(=O)[C@H](CCSC)NC(=O)CNC(=O)CNC(=O)[C@H](CO)NC(=O)[C@H](CC(C)C)NC(=O)[C@H](CO)NC(=O)[C@H](CO)NC(=O)[C@H](CC(N)=O)NC(=O)[C@H](CC(C)C)NC(=O)[C@H](C)NC(=O)[C@@H](NC(=O)[C@H](CC(C)C)NC(=O)[C@H](Cc1c[nH]cn1)NC(=O)[C@H](CC(C)C)NC(=O)[C@@H](NC(=O)[C@@H]1CCCN1C(=O)[C@H](CCC(N)=O)NC(=O)[C@H](Cc1ccccc1)NC(=O)[C@H](CC(=O)O)NC(=O)[C@H](CCCNC(=N)N)NC(=O)[C@H](Cc1c[nH]cn1)NC(=O)[C@@H](NC(=O)[C@H](Cc1c[nH]cn1)NC(C)=O)[C@@H](C)O)C(C)C)C(C)C)C(=O)N[C@@H](CCCNC(=N)N)C(=O)NCC(=O)N[C@@H](C)C(=O)N[C@@H](CC(=O)O)C(N)=O [Polypeptide P2T2S18] (Ac-HTHRDFQPVLHLVALNSSLSGGMRGIRGAD-NH2) the “IC50 (ug/ml) HUVEC” value [2] was 66.7 µg/mL (≈ 20.3 µM), the “Cell Survival (%), 1 mg/ml of polypeptide, HUVEC” value (“Cell Survival (%) … HUVEC” for short) [2] was 2% and the “Cell Survival (%) at a polypeptide concentration of 120 μM” value ([2]; 6 h, 120) was 2%. The “reduction of IC50 concentration as compared to that of P2” value ([2]; HUVEC and HepG2) was “about 10 folds”, the “IC50 (ug/ml) HepG2” value (tumor cell HepG2) was 76.9 µg/mL (≈ 23.4 µM) and the “Cell Survival (%), 1 mg/ml of polypeptide, HepG2” value (“Cell Survival (%) … HepG2” below) (tumor cell HepG2; 1) was 4%. For the same molecule, the “IC50” value (LS174T (Colon cancer)) was 84.7 µg/mL (≈ 25.8 µM), the “Cell Survival (%) at a polypeptide concentration of 1 mg/ml” value (shortened to “Cell Survival (%) … of 1 mg/ml”) (LS174T (Colon cancer); 1 mg/ml) was 1% and the “IC50” value (SPC-A-1 (lung carcinoma); SPC-A-1) was 80.6 µg/mL (≈ 24.5 µM). For the same molecule, the “Cell Survival (%) … of 1 mg/ml” value (SPC-A-1 (lung carcinoma); SPC-A-1, 1 mg/ml) was 16%, the “IC50 concentration as fraction of IC50 concentration of P2” value (SPC-A-1 (lung carcinoma); all seven tumor cell lines of Example 10) was “less than 1/10” and the “IC50” value (A549 (lung carcinoma); A549) was 72.5 µg/mL (≈ 22.1 µM). The “Cell Survival (%) … of 1 mg/ml” value (A549 (lung carcinoma); A549, 1 mg/ml) was 18%, the “IC50” value ([3]; CK-MES-1) was 66.7 µg/mL (≈ 20.3 µM) and the “Cell Survival (%) … of 1 mg/ml” value ([3]; CK-MES-1, 1 mg/ml) was 7%. For the same molecule, the “IC50” value (BEL7402 (Liver cancer); BEL7402) was 64.9 µg/mL (≈ 19.8 µM), the “Cell Survival (%) … of 1 mg/ml” value (BEL7402 (Liver cancer); BEL7402, 1 mg/ml) was 4% and the “IC50” value (SMMC7721 (Liver cancer); SMMC7721) was 76.9 µg/mL (≈ 23.4 µM). The “Cell Survival (%) … of 1 mg/ml” value (SMMC7721 (Liver cancer); SMMC7721, 1 mg/ml) was 9%, the “IC50” value ([4]; BxPC-3) was 78.1 µg/mL (≈ 23.8 µM) and the “Cell Survival (%) … of 1 mg/ml” value ([4]; BxPC-3, 1 mg/ml) was 3%. The “time after being added into the culture medium at which the polypeptide acts on the cells” value [5] was 2 h, the “state of cells at 24 hours” value ([5]; 24 hours) was “only cell debrises left” and the “manner of induced cell death” value ([5]; optical microscope) was “cells did not shrink. On the contrary, they extremely swelled”. For the same molecule, the “Tumor inhibitor rate (%)” value [1] was 76.7% and the toxic reaction [1] was “did not produce toxic reaction”.

In the case of CC[C@H](C)[C@H](NC(=O)CNC(=O)[C@H](CCCNC(=N)N)NC(=O)[C@H](CCSC)NC(=O)CNC(=O)CNC(=O)[C@H](CO)NC(=O)[C@H](CC(C)C)NC(=O)[C@@H]1CCCN1C(=O)[C@H](CO)NC(=O)[C@H](CC(N)=O)NC(=O)[C@H](CC(C)C)NC(=O)[C@H](C)NC(=O)[C@@H](NC(=O)[C@H](CC(C)C)NC(=O)[C@H](Cc1c[nH]cn1)NC(=O)[C@H](CC(C)C)NC(=O)[C@@H](NC(=O)[C@@H]1CCCN1C(=O)[C@H](CCC(N)=O)NC(=O)[C@H](Cc1ccccc1)NC(=O)[C@H](CC(=O)O)NC(=O)[C@H](CCCNC(=N)N)NC(=O)[C@H](Cc1c[nH]cn1)NC(=O)[C@@H](NC(=O)[C@H](Cc1c[nH]cn1)NC(C)=O)[C@@H](C)O)C(C)C)C(C)C)C(=O)N[C@@H](CCCNC(=N)N)C(=O)NCC(=O)N[C@@H](C)C(=O)N[C@@H](CC(=O)O)C(N)=O [Polypeptide P2T2] (Ac-HTHRDFQPVLHLVALNSPLSGGMRGIRGAD-NH2), the “IC50 (ug/ml) HUVEC” value [2] is reported as 1506.1 µg/mL (≈ 457 µM), the “Cell Survival (%) … HUVEC” value [2] is reported as 46% and the “biological activity compared with P2” value ([2]; inhibition of HUVEC and HepG2) is reported as “lower biological activity than P2”. The “IC50 (ug/ml) HepG2” value (tumor cell HepG2) was 2169.6 µg/mL (≈ 659 µM) and the “Cell Survival (%) … HepG2” value (tumor cell HepG2; 1) was 55%.

B1: endostatin: Recombinant human endostatin, SEQ ID NO: 1, commercially available (protein, listed as Homo sapiens)
chain: HSHRDFQPVLHLVALNSPLSGGMRGIRGADFQCFQQARAVGLAGTFRAFLSSRLQDLYSIVRRADRAAVPIVNLKDELLFPSWEALFSGSEGPLKPGARIFSFDGKDVLRHPTWPQKSVWHGSDPNGRRLTESYCETWRTEAPSATGQASSLLGGRLLGQSAASCHHAYIVLCIENSFMTASK
B1 was tested, and the “Cell Survival (%) … HUVEC” value [2] was 70%, the “IC50 (ug/ml) HepG2” value (tumor cell HepG2) was 2245.4 µg/mL and the “Cell Survival (%) … HepG2” value (tumor cell HepG2; 1 mg/ml) was 64%. The “Tumor inhibitor rate (%)” value [1] was 41.2%.

B2: endostar: marketed recombinant human endostatin drug, SEQ ID NO: 10 (protein)
chain: MGGSHHHHHHSHRDFQPVLHLVALNAPLSGGMRGIRGADFQCFQQARAVGLAGTFRAFLSSRLQDLYSIVRRADRAAVPIVNLKDELLFPSWEALFSGSEGPLKPGARIFSFDGKDVLRHPTWPQKSVWHGSDPNGRRLTESYCETWRTEAPSATGQASSLLGGRLLGQSAASCHHAYIVLCIENSFMTASK
modifications: Recombinant human endostatin drug, endostar
For B2, the “Cell Survival (%) … HUVEC” value [2] was 82%, the “Cell Survival (%) … HepG2” value (tumor cell HepG2; 1 mg/ml) was 91% and the “Tumor inhibitor rate (%)” value [1] was 28.5%.
